In patent publication US20250320206A1, “STAT6 DEGRADERS” (Gilead Sciences, Inc., priority 2024, published 2025) one finds DC50 and EC50 data, which are given here for five molecules.

In one test the target is T1, STAT6 (Homo sapiens, UniProt P42226).
T1 construct: These cells express endogenous STAT6; host or cells: HeLa LgBiT clone 4.14
T1 sequence (P42226 1-847): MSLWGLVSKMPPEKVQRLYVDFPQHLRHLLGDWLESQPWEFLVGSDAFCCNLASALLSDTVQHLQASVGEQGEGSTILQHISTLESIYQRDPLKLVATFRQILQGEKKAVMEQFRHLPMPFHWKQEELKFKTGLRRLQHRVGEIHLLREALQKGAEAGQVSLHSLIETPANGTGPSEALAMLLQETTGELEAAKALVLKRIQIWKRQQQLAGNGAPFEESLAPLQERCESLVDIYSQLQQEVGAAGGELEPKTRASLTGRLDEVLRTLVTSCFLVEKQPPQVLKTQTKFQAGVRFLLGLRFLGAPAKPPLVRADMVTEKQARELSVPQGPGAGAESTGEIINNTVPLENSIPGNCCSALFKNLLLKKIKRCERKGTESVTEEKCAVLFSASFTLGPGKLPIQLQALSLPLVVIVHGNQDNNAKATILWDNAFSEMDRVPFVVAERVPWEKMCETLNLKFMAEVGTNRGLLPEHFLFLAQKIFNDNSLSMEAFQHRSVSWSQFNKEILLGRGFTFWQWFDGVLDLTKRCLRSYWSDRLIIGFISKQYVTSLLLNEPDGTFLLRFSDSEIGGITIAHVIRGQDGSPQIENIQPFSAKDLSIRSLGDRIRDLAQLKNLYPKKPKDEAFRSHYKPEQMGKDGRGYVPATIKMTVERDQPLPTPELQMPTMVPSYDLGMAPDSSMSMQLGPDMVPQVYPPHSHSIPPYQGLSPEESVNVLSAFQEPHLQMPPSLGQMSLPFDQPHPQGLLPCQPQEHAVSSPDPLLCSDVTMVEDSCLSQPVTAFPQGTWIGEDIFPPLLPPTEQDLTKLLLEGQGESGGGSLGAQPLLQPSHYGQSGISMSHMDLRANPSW
The experiment in a line: Stat6 Degrader Assay (HiBiT based, HeLa LgBiT clone 4.14). In kind it is cell-based. As to conditions: HeLa LgBiT clone 4.14 HiBiT-STAT6, 4-24 h incubation; values given for compounds with >80% Emax; geometric mean; read-out: STAT6 degradation DC50. The procedure, abridged: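 HeLa LgBiT clone 4.14 cells with CRISPR HiBiT-tagged endogenous STAT6, 5000 cells/well, compound dosed then incubated 4-24 h at 37° C, 5% CO2. Nano-Glo substrate added, 0.5 h, luminescence read as non-degraded STAT6. Terfenadine 50 μM (cell kill) defines 100% degradation.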
On the technique in general: The HiBiT peptide binds its large partner to form an active luciferase.

The subject of test [1] is Eotaxin-3 release in human whole blood stimulated with IL-4. The experiment in a line: Human Whole Blood Eotaxin-3 Assay (IL-4 stimulated eotaxin-3 release). In kind it is cell-based. As to conditions: IL-4 stimulation, 48 h, values given for compounds with >80% Emax, geometric mean. The procedure, abridged: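 Lithium-heparin human whole blood preincubated 2 h at 37° C with 4-fold serially diluted compounds (0.5% DMSO), then stimulated with recombinant human IL-4 ([…]) for 48 h. Eotaxin-3 (CCL26) in supernatant quantified by MSD immunoassay.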

What is called DC50 is the concentration at which degradation of the target reaches its halfway point. One may read the EC50 as the midpoint of the concentration-response curve.

`CNc1cc(=O)n(-c2ccnc3c2cc([C@H](C)N2CC=C(c4c(C)cc(C(=O)N5CCC(CN6CCN(c7ccc8c(c7)C(C)(C)C(=O)N8C7CCC(=O)NC7=O)CC6)CC5)cc4F)CC2)n3C)cc1F` (stereo partly drawn) [Example 3u303, 3-(5-(4-((1-(3-fluoro-4-(1-((S)-1-(4-(5-fluoro-4-(methylamino)-2-oxopyridin-1 (2H)-yl)-1-methyl-1H-pyrrolo[2,3-b]pyridin-2-yl)ethyl)-1,2,3,6-tetrahydropyridin-4-yl)-5-methylbenzoyl)piperidin-4-yl)methyl)piperazin-1-yl)-3,3-dimethyl-2-oxoindolin-1-yl)piperidine-2,6-dione]: the DC50 at STAT6 amounted to 21.7 nM. The same molecule had a concentration for a half-maximal effect (EC50) in test [1] of 37.1 nM.
In the case of `CNc1ccn(-c2ccnc3c2cc([C@H](C)N2CC=C(c4c(C)cc(C(=O)N5CCC(CN6CCN(c7ccc8c(c7)C(C)(C)C(=O)N8C7CCC(=O)NC7=O)CC6)CC5)cc4F)CC2)n3C)c(=O)c1` (stereo partly drawn) [Example 3u304, 3-(5-(4-((1-(3-fluoro-5-methyl-4-(1-((S)-1-(1-methyl-4-(4-(methylamino)-2-oxopyridin-1 (2H)-yl)-1H-pyrrolo[2,3-b]pyridin-2-yl)ethyl)-1,2,3,6-tetrahydropyridin-4-yl)benzoyl)piperidin-4-yl)methyl)piperazin-1-yl)-3,3-dimethyl-2-oxoindolin-1-yl)piperidine-2,6-dione], the DC50 at STAT6 was 6.5 nM. Also, the midpoint of the response in test [1], the EC50, lay at 10.8 nM.
Take `CNc1cc(=O)n(-c2ccnc3c2cc([C@H](C)N2CC=C(c4c(C)cc(C(=O)N5CCC(CN6CCN(Cc7ccc8c(c7)C7(CCC7)C(=O)N8C7CCC(=O)NC7=O)C[C@@H]6C)CC5)cc4F)CC2)n3C)cc1F` (stereo partly drawn) [Example 3u309, 3-(5′-(((S)-4-((1-(3-fluoro-4-(1-((S)-1-(4-(5-fluoro-4-(methylamino)-2-oxopyridin-1 (2H)-yl)-1-methyl-1H-pyrrolo[2,3-b]pyridin-2-yl)ethyl)-1,2,3,6-tetrahydropyridin-4-yl)-5-methylbenzoyl)piperidin-4-yl)methyl)-3-methylpiperazin-1-yl)methyl)-2′-oxospiro[cyclobutane-1,3′-indolin]-1′-yl)piperidine-2,6-dione]: the DC50 on STAT6 was 2.2 nM. The EC50 in test [1] was found to be 4.8 nM.
In the case of `CNc1ccn(-c2ccnc3c2cc([C@H](C)N2CC=C(c4c(C)cc(C(=O)N5CCC(CN6CCN(c7cc8c(cc7F)n(C7CCC(=O)NC7=O)c(=O)n8C)CC6)CC5)cc4F)CC2)n3C)c(=O)c1` (stereo partly drawn) [Example 3u310, 3-(6-fluoro-5-(4-((1-(3-fluoro-5-methyl-4-(1-((S)-1-(1-methyl-4-(4-(methylamino)-2-oxopyridin-1 (2H)-yl)-1H-pyrrolo[2,3-b]pyridin-2-yl)ethyl)-1,2,3,6-tetrahydropyridin-4-yl)benzoyl)-piperidin-4-yl)methyl)piperazin-1-yl)-3-methyl-2-oxo-2,3-dihydro-1H-benzo[d]imidazol-1-yl)-piperidine-2,6-dione], the DC50 on STAT6 is 0.7 nM. This molecule also showed an EC50 in test [1] of 0.4 nM.
Regarding `C[C@H]1CN(Cc2ccc3c(c2)n(C)c(=O)n3C2CCC(=O)NC2=O)CCN1CC1CCN(C(=O)c2cc(F)c(C3CCN(Cc4cc5c(-n6ccc7c(c6=O)CCN7)ccnc5n4C)CC3)c(F)c2)CC1` (stereo partly drawn) [Example 3u311, 3-(5-(((S)-4-((1-(3,5-difluoro-4-(1-((1-methyl-4-(4-oxo-1,2,3,4-tetrahydro-5H-pyrrolo[3,2-c]pyridin-5-yl)-1H-pyrrolo[2,3-b]pyridin-2-yl)methyl)piperidin-4-yl)benzoyl)piperidin-4-yl)methyl)-3-methylpiperazin-1-yl)methyl)-3-methyl-2-oxo-2,3-dihydro-1H-benzo[d]imidazol-1-yl)piperidine-2,6-dione], the DC50 on STAT6 turned out to be 0.5 nM. In test [1], this molecule had an EC50 of 0.4 nM.
